# From US6528653B2, “Thienopyrrolidinones” (Hoffmann-La Roche, Inc., priority 2000, dated 2003)
# Test system: LPS-induced TNF-α production in THP-1 cells
# Assay: Inhibition of LPS-induced TNF-α production in THP-1 cells (TNF-α ELISA)
# Format: cell-based
# Conditions: Homo sapiens, 30 min preincubation with compound, LPS 4 hours, TNF-α in supernatant by ELISA, percentage of DMSO control
# Experimental: The assay uses a modification of the methods described in Blifield et al., Transplantation, 51:498-503 (1991).
# (a) Induction of TNF Biosynthesis
# THP-1 cells were suspended in serum free culture medium LGM-3 (Clonetics, Bio Whittaker, UK, Cat. No. CC-3211), at a concentration of 5×10^5 cells/ml and then plated in 96 well-plates (0.2 ml aliquots in each well). Test compounds were dissolved in DMSO and then diluted with the culture medium such that the final DMSO concentration was 1%. Twenty five μl aliquots of test solution or only medium with DMSO (control) were added to each well giving a final DMSO concentration of 0.1%. The cells were incubated for 30 min. at 37° C. LPS (Sigma Chemical Company, UK) was added to the wells at a final concentration of 2 μg/nml, and cells were incubated for an additional 4 hours. At the end of the incubation period, culture supernatants were collected and the amount of TNF-α present was determined using a commercial TNF-α ELISA assay as described below.
# (b) ELISA Assay. Quantikine™ human TNF-α (R&D Systems Europe Ltd., UK) (Cat. No. DTA50 in 2000)
# The assay was carried out according to the manufacturer's instructions with the following modifications. Assay plates were centrifuged at 200 g and a 200 μl sample added to each well. TNF-α standard was made up and diluted in LGM-3 culture medium. Samples in the ELISA plate were then incubated overnight at 4° C. instead of 2 hours at 37° C. TNF-α production for each condition was calculated and expressed as a percentage of DMSO control to enable IC50 calculation.
row,IC50,Structure (SMILES)
1,1.59 µM,"COc1cc[nH]c1/C=C1\C(=O)Nc2sccc21 [Example 13, (Z)-4,6-Dihydro-4-[(3-methoxy-1H-pyrrol-2-yl)methylene]-thieno[2,3-b]pyrrol-5-one]"
2,3.69 µM,"N#Cc1cc2c(s1)NC(=O)/C2=C\c1ccc[nH]1 [Example 20, (Z)-5,6-Dihydro-5-oxo-4-[(1H-pyrrol-2-yl)methylene]-4H-thieno[2,3-b]pyrrole-2-carbonitrile]"
3,1.1 µM,"O=C1Nc2sccc2/C1=C/c1c[nH]nc1-c1ccccc1 [Example 9, (Z)-4,6-Dihydro-4-[(3-phenyl-1H-pyrazol-4-yl)methylene]-thieno[2,3-b]pyrrol-5-one]"
4,5.08 µM,"O=C1Nc2sccc2/C1=C/c1ccc[nH]1 [Example 1, (Z)-4,6-Dihydro-4-[(1H-pyrrol-2yl)methylene]thieno[2,3-b]pyrrol-5-one]"
